The nature of series [1]: Side effects, case report Example 3. The class given is in vivo, human. To be noted: Ex.3; for most notable side effects of the immunotherapy protocol: 5% imiquimod cream and 5% 5-fluorouracil cream intra-anally, resolved on brief cessation or reduced frequency. From the text:
Aug. 7, 2015 HRA done and biopsies taken. […] Pt told to wait until irritation has abated before continuing the imiquimod cream treatments. First perianal HPV-9 vaccination given.
The above case report represents a case of recurrent anal HSIL status post multiple ablative procedures. The patient has HIV infection and thus is moderately immunosuppressed. In spite of the immunosuppression, the patient was able to clear not only HSIL (AIN 2 and AIN 3) but also was able to clear LSIL (AIN 1). The presence of a normal anal pap smear result on Jun. […] 20, 2016. […] It is presumed that the use of the 5-fluorouracil cream treated nests of dysplastic cells that if not treated would likely lead to recurrent LSIL or HSIL. Thus, the immunotherapy protocol may be useful for patients in a salvage situation who have failed multiple ablative procedures with recurrent HSIL in the setting of immunosuppression due to HIV infection. […] This might be due to the immunosuppression secondary to chronic HIV infection.

In series [2] the test system is anal dysplasia. As to the kind of experiment: Anal pap smear cytology, case report Example 3. The series is classed as in vivo, human. Conditions: Ex.3, imiquimod + HPV-9 vaccine. From the text: (§1) Case Report Summary: The patient is a HIV positive gay with chronic HIV infection who presents with recurrent high grade squamous intraepithelial lesion (HSIL) post multiple ablative treatments. The patient received treatment for their HIV disease with a combination of anti-retroviral medicatons (abacavir, etravirine, prezista and ritonavir which was later modified to dolutegravir, etravirine and prezista and ritonavir). Over the past two years the CD4 count has been in the range of 250-350 and there has been low level HIV viremia (40-400 copies range per ml of plasma) due to intermittent adherence. The patient has other co-morbid conditions including hepatitis C, hypertension, hyperlipidemia, osteoporosis, and high risk sexual activity.
(§2) May 29, 2015 Discussed immunotherapy for recurrent HSIL after failing ablative therapies described above. Patient received HPV-9 vaccine intramuscular in the deltoid. This is the start of the immunotherapy protocol. Patient starts the intra-anal application of 5% imiquimod cream three times per week.
(§3) Jan. 15, 2016 4th perianal HPV-9 vaccination given. Discontinue 5% intra-anal imiquimod cream and begin 5% 5-fluorouracil cream intra-anally three times a week for 20 weeks.

A further series relates to HPV DNA / AIN. To be noted: cited from earlier work.
Series [3] relates to anal intraepithelial neoplasia (AIN). Put plainly: High resolution anoscopy (HRA) with biopsies, case report Example 1. The series is classed as in vivo, human. As for the experimental part: (§4) Case Report Summary: A HIV negative patient with multifocal AIN 2 and AIN 3 in the anal transitional zone was enrolled. The patient was treated with intra-anal imiquimod followed by an intramuscular dose of HPV4 followed by four perianal HPV4 immunizations, each separated by 3-4 weeks. The patient was screened for high risk (HR) HPV DNA on a weekly basis and had multiple biopsies to identify possible dysplasia.
(§5) Detailed Data and Results: A HIV negative person presented for routine health care. […] Patient was referred for HRA. […] 5, 2014. Biopsies indicated the following: distal AIN 1 at three o'clock; AIN 1 at 4 o'clock; AIN 2 at 7 o'clock; AIN 2 at 10 o'clock; and AIN 2 at 12 o'clock. FIGS. 1B and 1C are posterior and anterior views, respectively, showing circumferential staining of the anal canal. Patient received the first immunization with qHPV vaccine IM in the deltoid on Nov. 13, 2014. On Dec. 1, 2014, the patient received the first perianal qHPV vaccine. They started to use 5% imiquimod on Dec. 1, 2014 with one packet applied intra-anally three times weekly.

The test system of the next series is high risk (HR) HPV DNA. Put plainly: Anal pap high risk HPV DNA screen, case report Example 1. The series is classed as in vivo, human. The method, then: as §4, §5
Series [4] in a line: Tolerability, case report Example 1. To be noted: Ex.1; intra-anal 5% imiquimod 3x/wk; resolved, restarted after several days to one week. The class given is in vivo, human. The text has this: On Dec. 29, 2014 the patient was again examined and had ASCUS anal pap smear. The anal pap was negative for high risk HPV types. […] The erythema and discomfort resolved and imiquimod was restarted after a period of several days to one week. On Jan. 27, 2015 the anal pap smear was normal and negative for high risk HPV DNA. They received the third perianal qHPV vaccine.

In series [5] the test system is anal intraepithelial neoplasia (AIN). As to the kind of experiment: HRA with biopsies, case report Example 3. The class given is in vivo, human. Conditions: Ex.3; for anal dysplasia, overall outcome of immunotherapy protocol: 5% imiquimod cream with perianal HPV-9 immunizations followed by 4-5 months of 2-3 times weekly intra-anal 5% 5-fluorouracil cream.
Description: as §1, §2, §3

The test system of series [6] is HPV other high risk types. Put plainly: Anal HPV typing/assay, case report Example 3. The series is classed as in vivo, human.
Description: as §1, §2, §3

Series [7] relates to anal dysplasia. As to the kind of experiment: Anal pap smear cytology, case report Example 1. The class given is in vivo, human. The method, then: as §4, §5
For another series, the system named is hepatitis C, genotype 1. As to the kind of experiment: Hepatitis C treatment of the Example 3 patient. The series is classed as in vivo, human. To be noted: Ex.3 patient; 12 weeks of treatment; 12 weeks post completion of therapy.
Where [8] appears, read: then intra-anal 5% 5-fluorouracil cream from Jan. 15, 2016, Jun. 20, 2016.
[9] abbreviates: Ex.1 HIV negative male with AIN 2/3, intra-anal 5% imiquimod 3x/wk + qHPV (HPV4) vaccine (IM, then 4 perianal).
The mark [10] stands for this setting: Ex.1, imiquimod + qHPV vaccine, Dec. 11, 2014.
Where [11] appears, read: Ex.1, imiquimod + qHPV vaccine, Dec. 29, 2014.
Setting [12] is: Ex.1, imiquimod + qHPV vaccine, Feb. 10, 2015.
Setting [13] is: Ex.1, imiquimod + qHPV vaccine, Feb. 25, 2015.
[14] abbreviates: Ex.1, imiquimod + qHPV vaccine, Jan. 27, 2015.
The mark [15] stands for this setting: Ex.1, imiquimod + qHPV vaccine, Pathology Report I.
The mark [16] stands for this setting: Ex.1, imiquimod + qHPV vaccine, Pathology Report II (Feb. 25, 2015).
Where [17] appears, read: imiquimod + HPV-9 vaccine, then intra-anal 5% 5-fluorouracil cream from Jan. 15, 2016, Apr. 21, 2016.
The mark [18] stands for this setting: imiquimod + HPV-9 vaccine, then intra-anal 5% 5-fluorouracil cream from Jan. 15, 2016, Jun. 20, 2016.

This is an account of results in patent US10561723B2, “Treatment and prevention of anal conditions” (priority 2015, dated 2020).

“Also recorded” adds a separate entry of the source.

For `CCN(CC)CC(=O)Nc1c(C)cccc1C` [lidocaine], the “burning at the site of HPV vaccination” value in series [1] (local infusion of 1% lidocaine prior to perianal HPV-9 vaccinations) was “much less burning”.
In the case of `CC(C)Cn1cnc2c(N)nc3ccccc3c21` [imiquimod, 3-(2-Methylpropyl)-3,5,8-triazatricyclo[7.4.0.0^2,6]trideca-1(9),2(6),4,7,10,12-hexaen-7-amine], the anal pap cytology entry is “negative for intraepithelial lesion and malignancy” with anal dysplasia [2] (setting [8]); “atypical cells of undetermined significance (ASCUS)” in the series with anal dysplasia [2] (Oct. 28, 2015); “LSIL” with anal dysplasia [2] (Sep. 30, 2015); “normal; also recorded: negative for intraepithelial lesion and malignancy” with anal dysplasia [7] (Ex.1, imiquimod + qHPV vaccine, Feb. 10, 2015 (Pathology Report I concurrent pap)). Moreover, the “most notable side effects of the immunotherapy protocol” value in series [1] is “anal and perianal irritation”. In series [1] (intra-anal 5% imiquimod cream 3x/wk, Aug. 7, 2015), the “patient complaints due to imiquimod cream treatments” value is “anal irritation and spotting of blood per anus”. The “developed recurrent AIN” value in the series on HPV DNA / AIN (after intra-anal 5% imiquimod cream, mean follow up approximately 30 months, often HPV types differing from start) is reported as 5 patient. In the series on HPV DNA / AIN (intra-anal 5% imiquimod cream three times weekly for 16 weeks, 19 HIV positive men with AIN), the “HPV DNA viral loads” value is reported as “decreased”. Moreover, the “anal dysplasia, overall outcome” value in series [3] (setting [9]) was “resolution of anal dysplasia”. Moreover, the HRA biopsies histology result is “AIN 1 at 4 o'clock; AIN 2 at 7 o'clock and AIN 3 at 12 o'clock” in series [3] (setting [10]); “AIN 2 at 7 o'clock and focal AIN 1 at 12 o'clock” in series [3] (setting [11]); “normal histology at 4, AIN 1 at 10 and small focal AIN 2 at 12 o'clock” in series [3] (setting [12]); 3 o'clock—AIN 2; 4 o'clock—AIN 1; 9 o'clock—AIN 1; 10 o'clock distal—AIN 1; 12 o'clock AIN 2 in series [5] (imiquimod + HPV-9 vaccine IM, Aug. 7, 2015); 3 o'clock—AIN 1; 5 o'clock—AIN 1; 6 o'clock—AIN 1; 9 o'clock—AIN 1; 10 o'clock—benign; 12 o'clock—benign in series [5] (setting [17]); 3 o'clock—benign; 9 o'clock—benign anal mucosa; 10 o'clock—benign anal mucosa; 12 o'clock—benign anal mucosa in series [5] (setting [18]). The HRA biopsies histology in series [5] (imiquimod + HPV-9 vaccine, Dec. 9, 2015) is reported as 3 o'clock AIN—1; 6 o'clock—AIN 1; 9 o'clock—benign; in series [5] (imiquimod + HPV-9 vaccine, Oct. 28, 2015), 1 o'clock—AIN 1; 4 o'clock—benign; 9 o'clock—AIN 1; 12 o'clock—AIN 1; in series [5] (imiquimod + HPV-9 vaccine, Sep. 30, 2015), 3 o'clock—AIN 1; 4 o'clock—AIN 1; 9 o'clock—AIN 1; 10 o'clock—AIN 1; 12 o'clock—benign. Also, the “anoscopist's observation of anal canal epithelium” value in series [3] (setting [13]) is on record as “remodeling of the anal canal epithelium, replacing thickened dysplastic epithelium with thin, translucent epithelium, which is normal”. Besides, the “biopsies at 2, 6, 10 and 12 o'clock” value in series [3] (setting [14]) is reported as “all normal without evidence of dysplasia”. In addition, in [3] (setting [15]), the “biopsy diagnosis, anal canal 4 o'clock (transition zone)” value was “no evidence of dysplasia or malignancy”. Moreover, in series [3] (setting [15]), the “biopsy diagnosis, anal canal 10 o'clock (transition zone)” value is recorded as “AIN 1”. In addition, the “biopsy diagnosis, anal canal 12 o'clock (transition zone)” value in series [3] (setting [15]) is listed as “AIN 2”. The “biopsy diagnosis, anal canal 5 o'clock” value in series [3] (setting [16]) is on record as “no evidence of dysplasia or malignancy”. Also, the “biopsy diagnosis, anal canal 7 o'clock” value in series [3] (setting [16]) is recorded as “no evidence of dysplasia or malignancy”. The “biopsy diagnosis, anal canal 10 o'clock” value in [3] (setting [16]) is “no evidence of dysplasia or malignancy”. In addition, the “biopsy diagnosis, anal canal 12 o'clock” value in series [3] (setting [16]) was “no evidence of dysplasia or malignancy”. Also, in the series on high risk (HR) HPV DNA (setting [9]), the “HR HPV DNA, overall outcome” value is reported as “loss of HR HPV DNA including HPV16”. In addition, the “anal pap high risk HPV DNA” value in the series with high risk (HR) HPV DNA (setting [10]), in the series with high risk (HR) HPV DNA (setting [12]) and with high risk (HR) HPV DNA (setting [14]) was “negative” throughout. Also, the “anal pap high risk HPV types” value in the series on high risk (HR) HPV DNA (setting [11]) is “negative”. In addition, the “HPV DNA” value in the series with high risk (HR) HPV DNA (setting [13]) is “negative”. In addition, the “local adverse effect leading to interruptions of imiquimod cream” value in [4] was “increased perianal erythema”. In addition, in series [5], the “anal dysplasia, overall outcome of immunotherapy protocol” value was “clearance of anal dysplasia (AIN 1, AIN 2 and AIN 3)”. Also, the HPV typing entry in [6] (Ex.3 HIV positive male, recurrent HSIL after ablative treatments, intra-anal 5% imiquimod 3x/wk + HPV-9 vaccine IM (May 29, 2015), Aug. 7, 2015) was “positive for other high risk types”. For the same molecule, in series [6] (Ex.3, imiquimod + HPV-9 vaccine (IM, 1 perianal), Sep. 30, 2015), the HPV assay entry is on record as “continued presence of other HPV high risk types”. Besides, the “anal Pap smear, overall outcome” value in the series on anal dysplasia [7] (setting [9]) is on record as “normalization of the anal Pap smear from ASCUS”. For the same molecule, the “anal pap smear cytology” value is “ASCUS” with anal dysplasia [7] (setting [11]); “normal; also recorded: negative for intraepithelial lesion and malignancy” in the series on anal dysplasia [7] (Ex.1, imiquimod + qHPV vaccine, Feb. 25, 2015 (Pathology Report II concurrent pap)); “normal” in the series on anal dysplasia [7] (setting [14]).
Turning to `O=c1[nH]cc(F)c(=O)[nH]1` [5-fluorouracil], in the series with anal dysplasia [2] (setting [8]), the anal pap cytology entry is “negative for intraepithelial lesion and malignancy”. Further, in [1], the “most notable side effects of the immunotherapy protocol” value was “anal and perianal irritation”. The “anal dysplasia, overall outcome of immunotherapy protocol” value in series [5] is “clearance of anal dysplasia (AIN 1, AIN 2 and AIN 3)”. Also, the figures for the HRA biopsies histology in [5] (setting [17]) and in series [5] (setting [18]) were 3 o'clock—AIN 1; 5 o'clock—AIN 1; 6 o'clock—AIN 1; 9 o'clock—AIN 1; 10 o'clock—benign; 12 o'clock—benign and 3 o'clock—benign; 9 o'clock—benign anal mucosa; 10 o'clock—benign anal mucosa; 12 o'clock—benign anal mucosa, respectively.
Take sofosbuvir/ledipasvir: the virologic response entry with hepatitis C, genotype 1 was “sustained virologic response”.
